In US20070117743A1, “New antitumoral compounds” (priority 2003, published 2007):
Where a SMILES comes first, the peptide text is derived from it. Bridges are numbered along the chain shown (N, C = ends). [ ]: non-standard residue; d: D form. The star is where a group is joined. d(aThr) = C[C@@H](O)[C@@H](N)C(=O)O; Hexanoyl(5-Me) = CC(C)CCCC(=O)*; Orn = NCCC[C@H](N)C(=O)O; Dhb = C/C=C(\N)C(=O)O

Columns and labels:
Type in all cases: cell-based, human
[1] = system: LoVo-Dox; test: SRB colorimetric assay of cell growth and viability, LoVo-Dox; details: 48 hours exposure; for CC50: read-out: LC50 LOVO-DOX
How it was run: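 Here, cells grow drug-free for 18 h, then receive sample dilutions from 10 down to 10^−8 μg/mL for 48 h at 37° C. Protein-bound SRB is solubilized in Tris and quantified at 490 nm.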

[2] = system: SK-MEL-28; test: SRB colorimetric assay of cell growth and viability, SK-MEL-28; details: 48 hours exposure; for CC50: read-out: LC50 MEL-28
[3] = system: A-549; test: SRB colorimetric assay of cell growth and viability, A-549; details: 48 hours exposure; for GI50: read-out: GI50 A-549; for CC50: read-out: LC50 A-549
[4] = system: SK-BR-3; test: SRB colorimetric assay of cell growth and viability, SK-BR-3; details: 48 hours exposure
[5] = system: PANC-1; test: SRB colorimetric assay of cell growth and viability, PANC-1; details: 48 hours exposure; for CC50: read-out: LC50 PANC-1
[6] = system: LoVo; test: SRB colorimetric assay of cell growth and viability, LoVo; details: 48 hours exposure; for CC50: read-out: LC50 LOVO
[7] = system: K-562; test: SRB colorimetric assay of cell growth and viability, K-562; details: 48 hours exposure; for CC50: read-out: LC50 K-562
[8] = system: LNCaP; test: SRB colorimetric assay of cell growth and viability, LNCaP; details: 48 hours exposure; for GI50: read-out: GI50 LN-caP; for CC50: read-out: LC50 LN-caP
[9] = system: IGROV-1; test: SRB colorimetric assay of cell growth and viability, IGROV-1; details: 48 hours exposure
[10] = system: IGROV-ET; test: SRB colorimetric assay of cell growth and viability, IGROV-ET; details: 48 hours exposure; for CC50: read-out: LC50 IGROV-ET
[11] = system: HT-29; test: SRB colorimetric assay of cell growth and viability, HT-29; details: 48 hours exposure; for GI50: read-out: GI50 HT-29; for CC50: read-out: LC50 HT-29
[12] = system: HeLa; test: SRB colorimetric assay of cell growth and viability, HeLa; details: 48 hours exposure; for CC50: read-out: LC50 HELA
[13] = system: DU-145; test: SRB colorimetric assay of cell growth and viability, DU-145; details: 48 hours exposure
[14] = system: HeLa-APL; test: SRB colorimetric assay of cell growth and viability, HeLa-APL; details: 48 hours exposure; for CC50: read-out: LC50 HELA-APL

In the case of `C/C=C1\NC(=O)[C@H](Cc2ccccc2)NC(=O)[C@@H](C(C)C)NC(=O)[C@@H](C(C)C)NC(=O)[C@H](NC(=O)[C@H](NC(=O)[C@H](CCCN)NC(=O)[C@H]2CCCN2C(=O)[C@H](NC(=O)[C@@H](NC(=O)[C@@H](NC(=O)[C@H](NC(=O)CCCC(C)C)C(C)C)[C@@H](C)O)C(C)C)C(C)C)C(C)C)[C@@H](C)OC(=O)[C@H](C(C)C)NC1=O` [Compound 12, [D-Val^5, D-Val^7]-KF] ({Hexanoyl(5-Me)}-[dV]TV[dV][dP][Orn][dV][d(aThr)][dV][dV]F[Dhb]V; ester 8-C), the GI50 [1] was 952 nM, the “TGI LOVO-DOX” value [1] was 1.97E−06 Molar and the CC50 [1] was 4080 nM. The GI50 [2] was 1680 nM, the “TGI MEL-28” value [2] was 3.12E−06 Molar and the CC50 [2] was 5780 nM. The “TGI A-549” value [3] was 6.68E−06 Molar, the GI50 [3] was 2170 nM and the CC50 [3] was 6900 nM. For the same molecule, the GI50 [4] was 1740 nM, the LC50 [4] was 5380 nM and the “TGI SK-BR-3” value [4] was 3.06E−06 Molar. The GI50 [5] was 4670 nM, the “TGI PANC-1” value [5] was 6.90E−06 Molar and the CC50 [5] was 6900 nM. For the same molecule, the GI50 [6] was 1260 nM, the “TGI LOVO” value [6] was 2.28E−06 Molar and the CC50 [6] was 4130 nM. The GI50 [7] was 3190 nM, the “TGI K-562” value [7] was 5.46E−06 Molar and the CC50 [7] was 6900 nM. The “TGI LN-caP” value [8] was 3.79E−08 Molar, the GI50 [8] was 2800 nM and the CC50 [8] was 5140 nM. The GI50 [9] was 1850 nM, the LC50 (concentration causing 50% net cell killing) [9] was 4930 nM and the “TGI IGROV” value [9] was 3.01E−06 Molar. For the same molecule, the GI50 [10] was 1790 nM, the “TGI IGROV-ET” value [10] was 2.97E−06 Molar and the CC50 [10] was 4930 nM. The “TGI HT-29” value [11] was 2.51E−06 Molar, the GI50 [11] was 1290 nM and the CC50 [11] was 4880 nM. The GI50 [12] was 1750 nM, the “TGI HELA” value [12] was 2.98E−06 Molar and the CC50 [12] was 5070 nM. The GI50 [13] was 1610 nM, the LC50 (concentration causing 50% net cell kill) [13] was 4920 nM and the “TGI DU-145” value [13] was 2.82E−06 Molar. The GI50 [14] was 3020 nM, the “TGI HELA-APL” value [14] was 6.01E−06 Molar and the CC50 [14] was 6900 nM.

For `C/C=C1\NC(=O)[C@H](Cc2ccccc2)NC(=O)[C@@H](C(C)C)NC(=O)[C@@H]([C@@H](C)CC)NC(=O)[C@H](NC(=O)[C@H](NC(=O)[C@H](CCCN)NC(=O)[C@H]2CCCN2C(=O)[C@H](NC(=O)[C@@H](NC(=O)[C@@H](NC(=O)[C@H](NC(=O)CCCCCCCCCC)C(C)C)[C@@H](C)O)C(C)C)C(C)C)[C@@H](C)CC)[C@@H](C)OC(=O)[C@H](C(C)C)NC1=O` [Compound 15, [Und^14]-KF], the GI50 [1] was 40.8 nM, the “TGI LOVO-DOX” value [1] was 1.65E−07 Molar and the CC50 [1] was 478 nM. For the same molecule, the GI50 [2] was 169 nM, the “TGI MEL-28” value [2] was 4.45E−07 Molar and the CC50 [2] was 2040 nM. For the same molecule, the “TGI A-549” value [3] was 3.39E−07 Molar, the GI50 [3] was 143 nM and the CC50 [3] was 1690 nM. For the same molecule, the GI50 [4] was 26.7 nM, the LC50 [4] was 468 nM and the “TGI SK-BR-3” value [4] was 7.43E−08 Molar. The GI50 [5] was 1230 nM, the “TGI PANC-1” value [5] was 2.28E−06 Molar and the CC50 [5] was 4200 nM. The GI50 [6] was 117 nM, the “TGI LOVO” value [6] was 2.67E−07 Molar and the CC50 [6] was 604 nM. For the same molecule, the GI50 [7] was 1150 nM, the “TGI K-562” value [7] was 2.18E−06 Molar and the CC50 [7] was 4100 nM. The “TGI LN-caP” value [8] was 1.44E−06 Molar, the GI50 [8] was 529 nM and the CC50 [8] was 3480 nM. For the same molecule, the GI50 [9] was 158 nM, the LC50 (concentration causing 50% net cell killing) [9] was 1540 nM and the “TGI IGROV” value [9] was 3.72E−07 Molar. For the same molecule, the GI50 [10] was 235 nM, the “TGI IGROV-ET” value [10] was 8.41E−07 Molar and the CC50 [10] was 3340 nM. For the same molecule, the “TGI HT-29” value [11] was 2.70E−07 Molar, the GI50 [11] was 127 nM and the CC50 [11] was 574 nM. For the same molecule, the GI50 [12] was 120 nM, the “TGI HELA” value [12] was 2.65E−07 Molar and the CC50 [12] was 588 nM. The GI50 [13] was 162 nM, the LC50 (concentration causing 50% net cell kill) [13] was 1040 nM and the “TGI DU-145” value [13] was 3.53E−07 Molar. The GI50 [14] was 229 nM, the “TGI HELA-APL” value [14] was 8.47E−07 Molar and the CC50 [14] was 3550 nM.
